The numbers were not newly measured in US20250190808A1, “DEVICE AND METHOD FOR IM[…] TR[…] NETWORK FOR T[…] SEQUENCE, AND TRAINING DEVICE AND METHOD USING SAME” (LG MANAGEMENT DEVELOPMENT INSTITUTE CO., LTD., priority 2022, published 2025), which cites them from elsewhere.

Like-named read-outs stand apart in the source and are kept apart here.

Data set [1] deals with MHC TYPE A*0204. Particulars: read-out: MHC BINDING (IC50).
Data set [2] deals with MHC TYPE A*0201 (Homo sapiens, UniProt P04439, D140Y/D185E/D98H/E176V/E277Q/G131W/G231S/I119V/I121R/I166T/I218V/L300P/L318F/N151K/N90K/P208A/P217A/Q86G/Q94H/R138H/R169H/T345S). Conditions: read-out: MHC BINDING (IC50).
Data set [3] relates to MHC TYPE B*0101. Conditions: read-out: MHC BINDING (IC50).
Data set [4] deals with T-cell.
For data set [5], the system named is MHC TYPE A*0101. Particulars: read-out: MHC BINDING (IC50).

As for MFEALPHII, in data set [1], the half-maximal inhibitory concentration (IC50) was 12 µM.

In the case of MGQIVTMFE, the 50% inhibitory concentration (IC50) is 21 nM in data set [2] and > 20 µM in data set [3]. Further, the “ACTIVATION OF T-CELL” value in data set [4] (MHC type A*0201) is “Positive”.

In the case of GQIVTMFEA, the IC50 in data set [5] was < 100 nM. Further, in data set [4] (MHC type A*0101), the “ACTIVATION OF T-CELL” value is recorded as “Negative”.

As a reminder, the IC50 is the concentration that gives 50% inhibition.
